As usually defined, the IC50 is the concentration that gives 50% inhibition. Usually EC50 stands for the concentration that produces a half-maximal response. What is called CC50 is the concentration giving 50% cytotoxicity.

From paper PMC5877874, “Prenylated phloroglucinols from Hypericum scruglii, an endemic species of Sardinia (Italy), as new dual HIV-1 inhibitors effective on HIV-1 replication” (PLoS ONE, 2018) come the findings set out here.

Like-named read-outs stand apart in the source and are kept apart here. A value given as a limit tells only on which side of the number the result lay.

Data set [1] addresses T1, HIV-1 RT-associated RDDP activity (Human immunodeficiency virus type 1 group M subtype B, UniProt P04585).
T1 construct: His-tagged p66/p51 HIV-1 RT; His tag; made in house; host or cells: Escherichia coli strain M15
The experiment in a line: RDDP assay (Enz-Check Reverse Transcriptase Assay Kit). It is filed as biochemical. The conditions noted are these: for IC50: concentration required to inhibit the HIV-1 RDDP activity by 50%. Here is the method: (§1) His-tagged p66/p51 HIV-1 RT was expressed in Escherichia coli strain M15 as previously described. Full-length IN and LEDGF proteins were expressed in E. coli BL21 (DE3).
The HIV-1 RT-associated RDDP activity was measured using the Enz-Check Reverse Transcriptase Assay Kit (Life technologies, Carls- bad, California, USA), as previously described. The Yonetani-Theorell analysis was performed as previously reported.

Data set [2] concerns the target T2, HIV-1 IN in the presence of LEDGF/p75 (Human immunodeficiency virus type 1 group M subtype B, UniProt P04585).
T2 construct: Full-length IN and LEDGF proteins were expressed in E. coli BL21 (DE3); made in house; host or cells: E. coli BL21 (DE3)
Nature of the data set: HTRF LEDGF dependent integrase assay. Format: biochemical. The settings on record: for IC50: IN catalytic activities in the presence of LEDGF/p75. Here is the method:
as §1
The IN LEDGF/p75 dependent assay allowed to measure the inhibition of the 3’processing and strand transfer IN reactions in the presence of recombinant LEDGF/p75 protein, as previously described. Briefly, 50 nM IN was preincubated with increasing concentration of compounds for 1 hour at room temperature in reaction buffer containing 20 mM HEPES pH 7.5, 1 mM DTT, 1% Glycerol, 20 mM MgCl2, 0.05% Brij-35 and 0.1 mg/ml BSA. To this mixture, 9 nM DNA donor substrate (5’-[…]-Biotin-3’ annealed with 5’-[…]-Biotin3’) and 50 nM DNA acceptor substrate (5’-Cy5-[…]-3’ annealed with 5’-Cy5- […]-3’) and 50 nM LEDGF/p75 protein were added and incubated at 37°C for 90 minutes.
For orientation: In TR-FRET formats the signal depends on donor and acceptor labels being close together.

A further data set relates to HIV-1 virus NL(AD8). The experiment in a line: Antiviral activity on HIV-1 (AD8) replication in TZM-bl cells (CPRG assay). Format: cell-based. The conditions noted are these: for EC50: read-out: EC50, HIV-1 (AD8) replication. The method, then: (§2) The human TZM-bl indicator cell line was obtained from the American Type Culture Collection (Manassas, VA) and maintained at 37°C and 5% CO2 in Dulbecco's modified Eagle's medium (DMEM) containing 10% fetal bovine serum, 50 μg/mLpenicillin, and 50 μg/mL streptomycin. The HIV-1 virus NL(AD8) was titrated as follows: serial 5-fold dilutions of the virus were made in quadruplicate wells in 96-well culture plates, in a total volume of 100 μL of growth medium, for a total of 8 dilution steps. Freshly trypsinized cells (20,000 cells in 100 μL of growth medium containing 75 μg/mL DEAE-dextran) were added to each well, and the plates were incubated at 37°C in a humidified 5% CO2-95% air environment. After 48 h of incubation, the medium was removed and viral infection was quantified using a β-galactosidase (CPRG) assay (Roche). Twenty thousand TZM-bl cells/well were seeded in 96-well plates in complete DMEM supplemented with 30 μg/mL DEAE-dextran (Sigma-Aldrich). Three hundred times the 50% tissue culture infective dose (TCID50)/mL of HIV AD8 strain and seven serial dilutions (range, 40.000 nM to 625 nM) of each compound were added to the cells, as previously described. Vehicle (0.1% dimethyl sulfoxide [DMSO])-treated cells served as a negative control. […] The TZM-bl indicator cell line has an integrated copy of the β-galactosidase gene under control of the HIV-1 promoter. Β-Galactosidase expression, measured by use of a chlorophenol red/β-D-galactopyranoside (CPRG) assay (Roche) in cell lysates 48 h post-infection was used as a marker of HIV infection. The inhibitory curves were fitted by nonlinear regression, allowing for the calculation of the 50% effective concentration (EC50) using the Prism software. To evaluate the cell toxicity of the compounds, the metabolic XTT [2,3-bis-(2-methoxy-4-nitro-5-sulfophenyl)-2H-tetrazolium-5-carboxanilide] test (Sigma-Aldrich) was performed according to the manufacturer's instructions.

Data set [3] addresses T3, HIV-1 RT-associated RNase H activity (Human immunodeficiency virus type 1 group M subtype B, UniProt P04585).
T3 construct: His-tagged p66/p51 HIV-1 RT; His tag; made in house; host or cells: Escherichia coli strain M15
Nature of the data set: RNase H polymerase-independent cleavage assay. Format: biochemical. The conditions noted are these: for Inhibition of both HIV-1 RT-associated RNase H and RDDP functions (in words): maximum concentration tested 100 μM; for IC50: concentration required to inhibit the HIV-1 RNase H activity by 50%. The method, then:
as §1
The HIV-1 RT-associated RNase H activity was measured in 100 μL reaction volume containing 50 mM Tris–HCl, pH 7.8; 6 mM MgCl2; 1 mM dithiothreitol (DTT); 80 mM KCl; hybrid RNA/DNA (5′-[…]-3′-fluorescein, 5′-[…]-3′-Dabcyl); and 3.8 nM RT. The reaction mixture was incubated for 1 h at 37°C, the reaction was stopped by the addition of EDTA, and products were measured with a Victor 3 (Perkin) at 490/528 nm.

In the next data set the test system is TZM-bl cells. The experiment in a line: Cell toxicity, metabolic XTT test. Format: cell-based, human. The method, then:
as §2

A short description of data set [4]: Cell toxicity, metabolic XTT test. Format: cell-based, human. The settings on record: human; TZM-bl cells, XTT; read-out: CC50, TZM-bl cell viability. The method, then: as §2
Background: Tetrazolium assays rely on reduction of a dye to a coloured formazan, in cell work by metabolically active cells.

The test system of data set [5] is env-pseudotyped HIV-1 virus (REJO4541 clone 67). It is filed as cell-based. The conditions noted are these: TZM-bl cells, 40-fold EC50 concentration.
Protocol: In TOA experiment it is of fundamental importance that only one replication cycle has been completed to avoid confounding effects derived from unwashed viruses after 1 hour of infection. […] 40000 TZM-bl cells/well in a 96-multiwell plate were infected with 1500 X the TCID50 per mL of the env-pseudotyped HIV-1 virus in complete medium supplemented with DEAE-dextran (Sigma–Aldrich, 30 mg/mL). Virus was incubated with cells for 1 h at 4°C, and unbound virus was subsequently removed by extensive and repeated washing with phosphate-buffered saline (PBS) to synchronize the replication. […] After 2 days, viral infection was quantified using a CPRG assay (Roche) and was then normalized to untreated control cells.
Where [6] appears, read: Human immunodeficiency virus 1, TZM-bl, 48 h.
Where [7] appears, read: TZM-bl cells, 48 h post-infection.

`C[C@@H]1O[C@@H](Oc2c(-c3ccc(O)c(O)c3)oc3cc(O)cc(O)c3c2=O)[C@H](O)[C@H](O)[C@H]1O` [Compound 6, quercitrin]: the 50% inhibitory concentration (IC50) in data set [1] amounted to 9.7 ± 1.4 µM; in data set [2], 1.6 ± 0.16 µM; in data set [3], 6.3 ± 1 µM. Moreover, the “Fold more active on HIV-1 IN activity with respect to HIV-1 RNase H function” value in data set [2] (IN versus RNase H IC50) is 4 fold. In addition, the EC50 in the data set on HIV-1 virus NL(AD8) (setting [6]) was over 40 µM. In addition, in the data set with HIV-1 virus NL(AD8) (highest tested concentration, TZM-bl cells), the “Effect on HIV-1 replication (in words)” value is on record as “did not exert any effect”. Also, the “Inhibition of both HIV-1 RT-associated RNase H and RDDP functions (in words)” value in data set [3] is given as “active in the low micromolar range”.
“3-geranyl-1-(2'-methylbutanoyl)phloroglucinol [Compound 1]”: the IC50 in data set [1] was determined as 25.5 ± 8.8 µM; in data set [2] it was 7.3 ± 0.3 µM; in data set [3] it was 4.3 ± 0.4 µM. Moreover, the 50% cytotoxic concentration (CC50) in the data set with TZM-bl cells was over 50 µM. Besides, the EC50 in the data set on HIV-1 virus NL(AD8) (setting [7]) was found to be 3.5 µM.
For `C=C(C)C(O)CC/C(C)=C/Cc1c(O)cc(O)c(C(=O)C(C)CC)c1O` (stereo not drawn) [Compound 3, 3-(13-hydroxygeranyl)-1-(2'-methylbutanoyl)phloroglucinol], the results for the IC50 in data set [1], in data set [2] and in data set [3] were 19.7 ± 3.5 µM, 13 ± 1 µM and 9.1 ± 0.5 µM, respectively. The CC50 in data set [4] was over 50 µM. Moreover, the “Time of addition after which antiviral activity is lost” value in data set [5] is on record as 4–5 hour post-infection. In the data set on HIV-1 virus NL(AD8) (setting [6]), the EC50 was determined as 3.5 µM.
Maraviroc [reference compound]: in the data set on HIV-1 virus NL(AD8) (setting [7]), the EC50 was determined as 0.07 µM.
With `CCOC(=O)C(=O)CC(=O)/C=C/c1cccn1Cc1ccccc1Cl` [RDS 1759, reference compound], the 50% inhibitory concentration (IC50) in data set [3] was 7.3 ± 0.1 µM.
On to `Oc1cc(O)c(CC(O)C(O)c2ccc(O)c(O)c2)c(O)c1` [Compound 4, 1,3,5-benzentriol 2-[(2S,3R)-3-(3,4-dihydroxylphenyl)-2,3-dihydroxylpropyl]], for which the IC50 in data set [1] came out at 92 ± 10 µM; in data set [2], 6.4 ± 0.7 µM; in data set [3] it was 93 ± 7 µM. In the data set with HIV-1 virus NL(AD8) (setting [6]), the half-maximal effective concentration (EC50) was over 40 µM. The “Inhibition of both HIV-1 RT-associated RNase H and RDDP functions (in words)” value in data set [3] is given as “weak inhibition”.
In the case of `O=C(O)c1ccc(O)c(O)c1` [Compound 5, 3,4-dihydroxybenzoic acid], the remaining activity at 100 µM in data set [1] (100 μM compound, read-out: Percentage of control RDDP activity in the presence of compound) was 85%; in data set [2] (100 μM compound, in the presence of LEDGF, read-out: Percentage of control IN activity in the presence of compound), 97%; in data set [3] (100 μM compound, read-out: Percentage of control RNase H activity in the presence of compound) it was 100%. Besides, the half-inhibitory concentration (IC50) in data set [1], in data set [2] and in data set [3] was over 100 µM in each case. For the same compound, the “HIV-1 IN inhibition (in words)” value in data set [2] (in presence of LEDGF/p75) was “not active”. The concentration giving a half-maximal response (EC50) in the data set with HIV-1 virus NL(AD8) (setting [6]) was over 40 µM. Moreover, the “Inhibition of both HIV-1 RT-associated RNase H and RDDP functions (in words)” value in data set [3] is “inactive”.
As to “3-geranyl-1-(2'-methylpropanoyl)phloroglucinol [Compound 2]”, the IC50 in data set [1] was determined as 12.3 ± 2.5 µM; in data set [2], 7.4 ± 0.4 µM; in data set [3] it was 4.1 ± 0.1 µM. In the data set on TZM-bl cells, this compound yielded a cytotoxic concentration (CC50) of over 50 µM. The EC50 in the data set on HIV-1 virus NL(AD8) (setting [7]) turned out to be 8 µM.
